Values of other authors, collected in paper PMC10590056, “Design and synthesis of cabotegravir derivatives bearing 1,2,3-triazole and evaluation of anti-liver cancer activity” (Frontiers in Pharmacology, 2023).
Where two headings read alike, the source gives them in different places.

Key:
[1] = system: HepG2 cells; conditions: cited from earlier work
[2] = system: mutant lung cancer cells (PC-9); parameters: method as in Mao L. F. et al., 2020; conditions: PC-9, stronger effect than icotinib; ref Mao L. F. et al., 2020; cited from earlier work
[3] = system: wild-type lung cancer cells (A549); parameters: method as in Mao L. F. et al., 2020; conditions: A549, stronger effect than icotinib; ref Mao L. F. et al., 2020; cited from earlier work

Compound: COc1ccc(CN(C(=O)Cn2cc(COc3ccc4c(C)cc(=O)oc4c3)nn2)c2cc(OC)c(OC)c(OC)c2)cc1 [compound 1]
- IC50 ([1]; ref Fu et al., 2019, read-out: IC50 for the inhibition of HepG2 cells): 1.71 µM

Compound: C[C@]12CC[C@@H]3c4ccc(O)cc4CC[C@H]3[C@@H]1CC[C@@]2(O)c1cn(CC(=O)c2ccc(Cl)cc2)nn1 [compound 2]
- IC50 ([1]; ref Queiroz et al., 2019, read-out: IC50 for HepG2 cells): 17.8 µM

Compound: Cc1c(C(=O)Nc2ccc(Oc3cccc4[nH]ccc34)c(F)c2)nnn1-c1ccc(F)cc1 [compound 3]
- IC50 ([1]; ref Wang L. et al., 2018, Chen et al., 2022b, read-out: IC50 for HepG2 cells): 2.03 µM

Compound: O=C(NCc1cn(-c2ccc(I)cc2)nn1)Nc1ccc(Cl)c(C(F)(F)F)c1 [compound 4]
- IC50 ([1]; ref Chen et al., 2022a, Oekchuae et al., 2022, read-out: IC50 for HepG2 cells): 5.57 µM

Compound: Clc1cccc(-n2cc(-c3cccc(Nc4ncnc5cc6c(cc45)OCCOCCOCCO6)c3)nn2)c1 [compound 5]
- Inhibitory effect on PC-9 cells [2]: excellent inhibitory effects
- Inhibitory effect on A549 cells [3]: excellent inhibitory effects
